Test results as given in patent publication US11608335B2, “Somatostatin modulators and uses thereof” (CRINETICS PHARMACEUTICALS, INC., priority 2018, dated 2023).

Each compound was assayed against human somatostatin receptor subtype 5 (Homo sapiens, UniProt P35346) (assay: cAMP assay for SST5R (inhibition of cAMP via human SST5 receptor)).
Sequence of human somatostatin receptor subtype 5 (P35346 whole entry): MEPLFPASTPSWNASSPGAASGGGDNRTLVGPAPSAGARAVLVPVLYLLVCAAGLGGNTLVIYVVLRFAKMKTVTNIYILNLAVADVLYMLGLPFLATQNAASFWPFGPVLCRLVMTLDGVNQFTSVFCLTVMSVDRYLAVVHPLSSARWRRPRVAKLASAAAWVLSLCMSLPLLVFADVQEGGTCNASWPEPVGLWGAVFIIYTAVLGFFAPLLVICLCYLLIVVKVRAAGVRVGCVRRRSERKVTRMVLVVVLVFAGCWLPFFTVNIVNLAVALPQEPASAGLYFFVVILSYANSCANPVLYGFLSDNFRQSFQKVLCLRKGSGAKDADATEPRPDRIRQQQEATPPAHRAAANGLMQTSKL
Description: cAMP Assay Protocol for SST5R:
The cells are cultured at 37° C., 5% CO2 and 95% humidity. […] The cells are incubated for 20 minutes at 37° C. […] The cells are treated with 50 μL of lysis buffer (HRTF cAMP kit, Cisbio) for 30 minutes and then the lysate is diluted to 250 μL with assay buffer. The lysate is transferred to 384-well plates and cAMP detection and visualization antibodies are added and incubated for 1-24 hours at room temperature. The time-resolved fluorescent signal is read with a Tecan M1000Pro multiplate reader. The intracellular cAMP concentrations are calculated by regression to a standard curve and are plotted vs. the concentration of the compounds of the invention and the EC50 of the compounds are calculated using standard methods. All data manipulations are in GraphPad Prism v6 or v7.

Row | Compound | EC50
1 | Cc1cc(F)cc(-c2cncc(-c3nc4c(F)cc(F)cc4[nH]3)c2N2CC(C)(CN)C2)c1 [Compound 1-50, 1-{1-[3-(4,6-difluoro-1H-1,3-benzodiazol-2-yl)-5-(3-fluoro-5-methylphenyl)pyridin-4-yl]-3-methylazetidin-3-yl}methanamine] | < 0.01 µM
2 | Cc1cc(F)cc(-c2cncc(-c3nc4cnccc4[nH]3)c2N2CC(CN)C2)c1 [Compound 1-22, 1-{1-[3-(3-fluoro-5-methylphenyl)-5-{3H-imidazo[4,5-c]pyridin-2-yl}pyridin-4-yl]azetidin-3-yl}methanamine] | 0.1 to 1 µM
3 | Cc1cc(F)cc(-c2cncc(-c3nc4cc(Cl)cc(F)c4[nH]3)c2N2CC(CN)C2)c1 [Compound 1-18, 1-{1-[3-(6-chloro-4-fluoro-1H-1,3-benzodiazol-2-yl)-5-(3-fluoro-5-methylphenyl)pyridin-4-yl]azetidin-3-yl}methanamine] | 0.01 to 0.1 µM
4 | NCC1CN(c2c(-c3nc4cc(F)cc(F)c4[nH]3)cncc2-c2cccc3cc[nH]c23)C1 [Compound 1-36, 1-{1-[3-(4,6-difluoro-1H-1,3-benzodiazol-2-yl)-5-(1H-indol-7-yl)pyridin-4-yl]azetidin-3-yl}methanamine] | 0.01 to 0.1 µM
5 | Cc1cc(F)cc(-c2cncc(-c3nc4cc(C#N)c(F)cc4[nH]3)c2N2CC(CN)C2)c1 [Compound 1-17, 2-{4-[3-(aminomethyl)azetidin-1-yl]-5-(3-fluoro-5-methylphenyl)pyridin-3-yl}-6-fluoro-1H-1,3-benzodiazole-5-carbonitrile] | 0.1 to 1 µM
6 | Cc1cc(C)cc(-c2cncc(-c3nc4cc(F)cc(F)c4[nH]3)c2N2CC(CN)C2)c1 [Compound 1-19, 1-{1-[3-(4,6-difluoro-1H-1,3-benzodiazol-2-yl)-5-(3,5-dimethylphenyl)pyridin-4-yl]azetidin-3-yl}methanamine] | 0.01 to 0.1 µM
7 | N#Cc1cccc(-c2cncc(-c3nc4c(F)cc(F)cc4[nH]3)c2N2CC(CN)C2)c1 [Compound 1-54, 3-{4-[3-(aminomethyl)azetidin-1-yl]-5-(4,6-difluoro-1H-1,3-benzodiazol-2-yl)pyridin-3-yl}benzonitrile] | < 0.01 µM
8 | Cc1cc(F)cc(-c2cncc(-c3nc4cccnc4[nH]3)c2N2CC(CN)C2)c1 [Compound 1-23, 1-{1-[3-(3-fluoro-5-methylphenyl)-5-{1H-imidazo[4,5-b]pyridin-2-yl}pyridin-4-yl]azetidin-3-yl}methanamine] | 0.1 to 1 µM
9 | NCC1CN(c2c(-c3ccccc3)cncc2-c2nc3c(F)cc(F)cc3[nH]2)C1 [Compound 1-27, 1-{1-[3-(4,6-difluoro-1H-1,3-benzodiazol-2-yl)-5-phenylpyridin-4-yl]azetidin-3-yl}methanamine] | 0.01 to 0.1 µM
10 | Cc1cc(F)cc(-c2cncc(-c3nc4cc(C#N)cc(F)c4[nH]3)c2N2CC(CN)C2)c1 [Compound 1-16, 2-{4-[3-(aminomethyl)azetidin-1-yl]-5-(3-fluoro-5-methylphenyl)pyridin-3-yl}-4-fluoro-1H-1,3-benzodiazole-6-carbonitrile] | 0.1 to 1 µM
11 | NCC1CN(c2c(-c3cc(Cl)cc(Cl)c3)cncc2-c2nc3cc(F)cc(F)c3[nH]2)C1 [Compound 1-60, 1-{1-[3-(3,5-dichlorophenyl)-5-(4,6-difluoro-1H-1,3-benzodiazol-2-yl)pyridin-4-yl]azetidin-3-yl}methanamine] | < 0.01 µM
12 | Cc1cccc(-c2cncc(-c3nc4cc(F)cc(F)c4[nH]3)c2N2CC(CN)C2)c1F [Compound 1-67, 1-{1-[3-(4,6-difluoro-1H-1,3-benzodiazol-2-yl)-5-(2-fluoro-3-methylphenyl)pyridin-4-yl]azetidin-3-yl}methanamine] | 0.1 to 1 µM

Other lines, results leading:

Row | EC50 | Compound
13 | 0.1 to 1 µM | N#Cc1cccc(-c2cncc(-c3nc4c(F)cccc4[nH]3)c2N2CC(N)C(C(F)(F)F)C2)c1 (stereo not drawn) [Compound 2-33, 3-{4-[3-amino-4-(trifluoromethyl)pyrrolidin-1-yl]-5-(4-fluoro-1H-1,3-benzodiazol-2-yl)pyridin-3-yl}benzonitrile]
14 | 0.01 to 0.1 µM | NC(=O)c1cc(-c2cncc(-c3nc4cccc(F)c4[nH]3)c2N2CC[C@H](N)C2)ccc1F [Compound 2-71, 5-{4-[(3S)-3-aminopyrrolidin-1-yl]-5-(4-fluoro-1H-1,3-benzodiazol-2-yl)pyridin-3-yl}-2-fluorobenzamide]
15 | 0.1 to 1 µM | CN(C)c1ccc(-c2cncc(-c3nc4cccc(F)c4[nH]3)c2N2CCC(C)(N)C2)cn1 (stereo not drawn) [Compound 2-14, 4′-(3-amino-3-methylpyrrolidin-1-yl)-5′-(4-fluoro-1H-1,3-benzodiazol-2-yl)-N,N-dimethyl-[3,3′-bipyridin]-6-amine]
16 | > 1 µM | N#Cc1cccc(-c2cncc(-c3nc4c(C(=O)O)cccc4[nH]3)c2N2CC[C@H](N)C2)c1 [Compound 2-82, 2-{4-[(3S)-3-aminopyrrolidin-1-yl]-5-(3-cyanophenyl)pyridin-3-yl}-1H-1,3-benzodiazole-4-carboxylic acid]
17 | 0.1 to 1 µM | CN(C)C(=O)c1cccc(-c2cncc(-c3nc4cccc(F)c4[nH]3)c2N2CCC(C)(N)C2)c1 (stereo not drawn) [Compound 2-31, 3-[4-(3-amino-3-methylpyrrolidin-1-yl)-5-(4-fluoro-1H-1,3-benzodiazol-2-yl)pyridin-3-yl]-N,N-dimethylbenzamide]
18 | < 0.01 µM | N#Cc1cc(F)cc(-c2cncc(-c3nc4cc(F)cc(F)c4[nH]3)c2N2CC[C@H](N)C2)c1 [Compound 2-87, 3-{4-[(3S)-3-aminopyrrolidin-1-yl]-5-(4,6-difluoro-1H-1,3-benzodiazol-2-yl)pyridin-3-yl}-5-fluorobenzonitrile]
19 | 0.01 to 0.1 µM | N#Cc1ccc(-c2cncc(-c3nc4c(F)cccc4[nH]3)c2N2CC[C@H](N)C2)cc1F [Compound 2-35, 4-{4-[(3S)-3-aminopyrrolidin-1-yl]-5-(4-fluoro-1H-1,3-benzodiazol-2-yl)pyridin-3-yl}-2-fluorobenzonitrile]
20 | 0.01 to 0.1 µM | N#Cc1ccc2nc(-c3cncc(-c4cc(F)cc(Cl)c4)c3N3CC[C@H](N)C3)[nH]c2c1 [Compound 2-103, 2-{4-[(3S)-3-aminopyrrolidin-1-yl]-5-(3-chloro-5-fluorophenyl)pyridin-3-yl}-1H-1,3-benzodiazole-5-carbonitrile]
21 | 0.1 to 1 µM | N#Cc1cc(F)cc(-c2cncc(-c3nc4cccc(F)c4[nH]3)c2N2C[C@@H](N)C[C@@H]2CO)c1 [Compound 2-66, 3-{4-[(2R,4S)-4-amino-2-(hydroxymethyl)pyrrolidin-1-yl]-5-(4-fluoro-1H-1,3-benzodiazol-2-yl)pyridin-3-yl}-5-fluorobenzonitrile]
22 | < 0.01 µM | NC(=O)c1cc(F)cc(-c2cncc(-c3nc4cccc(F)c4[nH]3)c2N2CC[C@H](N)C2)c1 [Compound 2-72, 3-{4-[(3S)-3-aminopyrrolidin-1-yl]-5-(4-fluoro-1H-1,3-benzodiazol-2-yl)pyridin-3-yl}-5-fluorobenzamide]
23 | 0.01 to 0.1 µM | Cn1c(-c2cncc(-c3cc(F)cc(C#N)c3)c2N2CC[C@H](N)C2)nc2cccc(Cl)c21 [Compound 2-117, 3-{4-[(3S)-3-aminopyrrolidin-1-yl]-5-(7-chloro-1-methyl-1H-1,3-benzodiazol-2-yl)pyridin-3-yl}-5-fluorobenzonitrile]
24 | 0.01 to 0.1 µM | CC1(N)CCN(c2c(-c3cccc(-n4cccn4)c3)cncc2-c2nc3cccc(F)c3[nH]2)C1 (stereo not drawn) [Compound 2-16, 1-[3-(4-fluoro-1H-1,3-benzodiazol-2-yl)-5-[3-(1H-pyrazol-1-yl)phenyl]pyridin-4-yl]-3-methylpyrrolidin-3-amine]
25 | 0.01 to 0.1 µM | N#Cc1cc(Cl)cc(-c2cncc(-c3nc4cccc(F)c4[nH]3)c2N2CC[C@H](N)C2)c1 [Compound 2-5, 3-{4-[(3S)-3-aminopyrrolidin-1-yl]-5-(4-fluoro-1H-1,3-benzodiazol-2-yl)pyridin-3-yl}-5-chlorobenzonitrile]
26 | < 0.01 µM | Cn1c(-c2cncc(-c3ccnc(C#N)c3)c2N2CC[C@](C)(N)C2)nc2c(F)cccc21 [Compound 2-150, 4-[(3S)-3-amino-3-methylpyrrolidin-1-yl]-5-(4-fluoro-1-methyl-1H-1,3-benzodiazol-2-yl)-[3,4′-bipyridine]-2′-carbonitrile]
27 | < 0.01 µM | Cc1cccc2nc(-c3cncc(-c4ccc(Cl)c(C#N)c4)c3N3CC[C@H](N)C3)[nH]c12 [Compound 2-98, 5-{4-[(3S)-3-aminopyrrolidin-1-yl]-5-(4-methyl-1H-1,3-benzodiazol-2-yl)pyridin-3-yl}-2-chlorobenzonitrile]
28 | 0.01 to 0.1 µM | CNC(=O)c1cccc(-c2cncc(-c3nc4cccc(F)c4[nH]3)c2N2CCC(C)(N)C2)c1 (stereo not drawn) [Compound 2-19, 3-[4-(3-amino-3-methylpyrrolidin-1-yl)-5-(4-fluoro-1H-1,3-benzodiazol-2-yl)pyridin-3-yl]-N-methylbenzamide]
29 | > 1 µM | Cc1ccc(F)c2[nH]c(-c3cncc(-c4ccnc(C(N)=O)c4)c3N3CC[C@H](N)C3)nc12 [Compound 2-107, 4-[(3S)-3-aminopyrrolidin-1-yl]-5-(7-fluoro-4-methyl-1H-1,3-benzodiazol-2-yl)-[3,4′-bipyridine]-2′-carboxamide]
30 | < 0.01 µM | Cn1c(-c2cncc(-c3cccc(C#N)c3)c2N2CC[C@H](N)C2)nc2c(F)cccc21 [Compound 2-74, 3-{4-[(3S)-3-aminopyrrolidin-1-yl]-5-(4-fluoro-1-methyl-1H-1,3-benzodiazol-2-yl)pyridin-3-yl}benzonitrile]
31 | 0.1 to 1 µM | N#CCn1c(-c2cncc(-c3cc(F)cc(C#N)c3)c2N2CC[C@H](N)C2)nc2ccccc21 [Compound 2-113, 3-{4-[(3S)-3-aminopyrrolidin-1-yl]-5-[1-(cyanomethyl)-1H-1,3-benzodiazol-2-yl]pyridin-3-yl}-5-fluorobenzonitrile]
32 | < 0.01 µM | CC1(N)CCN(c2c(-c3ccnc(C#N)c3)cncc2-c2nc3cccc(C#N)c3[nH]2)C1 (stereo not drawn) [Compound 2-160, 4-(3-amino-3-methylpyrrolidin-1-yl)-5-(4-cyano-1H-1,3-benzodiazol-2-yl)-[3,4′-bipyridine]-2′-carbonitrile]
33 | 0.01 to 0.1 µM | Cc1cccc2cc(-c3cncc(-c4cc(F)cc(C#N)c4)c3N3CC[C@H](N)C3)[nH]c12 [Compound 2-137, 3-{4[(3S)-3-aminopyrrolidin-1-yl]-5-(7-methyl-1H-indol-2-yl)pyridin-3-yl}-5-fluorobenzonitrile]
